Usually solubility stands for the dissolved amount per volume that the medium holds. A lower solubility goes with a poorly soluble substance. Broadly, the microsomal CLint is the rate of metabolic loss divided by the concentration. For orientation: AUC means concentration integrated over time. Usually Cmax stands for the maximum level reached in the sampled fluid or tissue. As a reminder, the Tmax is the time from dosing to the highest level. For orientation: IC50 means the point on the concentration scale where inhibition reaches its midpoint.

Results on eight molecules are retold here after patent US11142533B2, “Macrocycles for use in treating disease” (TURNING POINT THERAPEUTICS, INC., priority 2019, dated 2021).

A short description of data set [1]: Solubility test in phosphate buffer. The class given is physicochemical. The following applies: aqueous buffer, thermodynamic from solid; phosphate buffer pH 7.4, room temperature. As to the method:
Aliquot of 1.035 mL phosphate buffer (PB) (pH 7.4) was added into 2.07 mg of the test compound (for a 2 mg·mL^−1 upper limiting solubility determination) in a 1.5 mL tubes. The mixture was ultrasonicly treated for 10 min and rotated on rotator at room temperature for more than 8 hr. After rotation, the tube was ultrasonicly treated for 10 min and centrifuged at 13000 rpm for 15 min. 0.3 mL of the supernatant was transferred into a 0.6 mL tube and discarded after rotated for 5 min for rinsing, then about 0.6 mL of the residual supernatant was transferred into the rinsed tube and centrifuged again at 13000 rpm for 15 min. The supernatant after every centrifugation was appropriately diluted and transferred for LC-MS/MS analysis where a standard curve was constructed with 7 concentration levels (2, 4, 10, 20, 40, 100 and 200 μg mL^−1) and used for the quantitation of the analyte in PB.

Data set [2] in a line: Liver microsomal stability. The format is in vitro ADME. The following applies: pH 7.4, 1 μM compound, 0.5 mg/mL liver microsome protein. On the procedure: The test compound stock solution was prepared by weighing 1.07 mg and dissolving in 0.261 mL of DMSO to achieve the concentration of 10 mM. Working solution of the test compound was prepared by diluting stock solution using DMSO to yield the concentration of 300 μM.
The assay was carried out in 96-well microtiter plates. In each well, the reaction mixture (25 μL) contained the test compound at the final concentration of 1 μM, 0.5 mg/mL liver microsome protein, and 1 mM NADPH in 100 mM potassium phosphate, pH 7.4 buffer with 3.3 mM MgCl2. The mixtures were incubated in duplicate at 37° C. for 0, 15, 30 or 60 minutes, and 150 μL of quench solution (acetonitrile with 0.1% formic acid) with internal standard (bucetin for positive ESI mode) was added into each well of reaction to terminate the reaction. The plates were then sealed and centrifuged at 4° C. for 15 minutes at 4000 rpm. The resulting supernatant was transferred to fresh plates for LC-MS/MS analysis of the test compounds. Verapamil was used as the positive control to validate the assay system.
All samples were analyzed with LC-MS/MS using an AB Sciex API 4000 instrument, coupled to a Shimadzu LC-20AD LC Pump system. Analytical samples were separated using a Waters Atlantis T3 dC18 reverse phase HPLC column (20 mm×2.1 mm) at a flow rate of 0.5 mL/min. The mobile phase consisted of 0.1% formic acid in water (solvent A) and 0.1% formic acid in acetonitrile (solvent B).
The extent of metabolism was calculated based on the disappearance of the test compound, compared to its initial concentration. The initial rates of clearance of test compounds were calculated using linear regression plot of semi-log % remaining of compounds versus time. The elimination rate constant (equals to negative slope) of the linear regression plot was then used to determine t112 and the intrinsic clearance (CLInt) using the following formula: k=−slope t1/2=0.693/k CLint=k/Cprotein
Where Cprotein (mg/mL) is the microsomal protein concentration in the incubation system.

The nature of data set [3]: Mouse pharmacokinetic study. The class given is in vivo. The following applies: single oral dose (dose level not given), plasma. On the procedure: To prepare 1 L of the vehicle solution (0.5% CMC and 1.0% Tween 80), 10 g of Tween 80 was mixed with 985 mL of water into a 1 L bottle. The mixture was stirred until Tween 80 was completely dissolved. With continued stirring, 5 g of CMC was very slowly sprinkled into the solution. Stirring was continued until all CMC was dissolved, which might take several hr. The resulting vehicle solution was stored at 4° C.
The compound was suspended in the vehicle solution and the mice were orally administrated with a single dose of the compound at the selected dose level. The blood samples were collected according to the defined time table into tubes containing K2-EDTA, followed by gentle mixing to assure distribution of the anti-coagulant. Immediately after the blood sample was collected and mixed, it was placed on ice. The samples were then centrifuged at 4° C. for 10 minutes at 5,000 RPM. The plasma was harvested into pre-labeled tubes and stored at −80° C. until analyzed by LC-MS/MS.

In the next data set the target is KM12 (TPM3-TRKA) (Homo sapiens, UniProt P04629). The experiment in a line: Cell proliferation assay (CellTiter-Glo).
The target of another data set is KG-1 cell (OP2-FGFR1) (Homo sapiens, UniProt P11362). The data set is described as follows: Cell proliferation assay (CellTiter-Glo). In general terms: ATP-based viability assays read luminescence as a measure of living cells.
Where [4] appears, read: female, mouse, liver microsomes.

Values after ≈ are worked out from the molar mass of the structure shown.

Chain of KM12 (TPM3-TRKA) (P04629 with tags, fused parts or gaps): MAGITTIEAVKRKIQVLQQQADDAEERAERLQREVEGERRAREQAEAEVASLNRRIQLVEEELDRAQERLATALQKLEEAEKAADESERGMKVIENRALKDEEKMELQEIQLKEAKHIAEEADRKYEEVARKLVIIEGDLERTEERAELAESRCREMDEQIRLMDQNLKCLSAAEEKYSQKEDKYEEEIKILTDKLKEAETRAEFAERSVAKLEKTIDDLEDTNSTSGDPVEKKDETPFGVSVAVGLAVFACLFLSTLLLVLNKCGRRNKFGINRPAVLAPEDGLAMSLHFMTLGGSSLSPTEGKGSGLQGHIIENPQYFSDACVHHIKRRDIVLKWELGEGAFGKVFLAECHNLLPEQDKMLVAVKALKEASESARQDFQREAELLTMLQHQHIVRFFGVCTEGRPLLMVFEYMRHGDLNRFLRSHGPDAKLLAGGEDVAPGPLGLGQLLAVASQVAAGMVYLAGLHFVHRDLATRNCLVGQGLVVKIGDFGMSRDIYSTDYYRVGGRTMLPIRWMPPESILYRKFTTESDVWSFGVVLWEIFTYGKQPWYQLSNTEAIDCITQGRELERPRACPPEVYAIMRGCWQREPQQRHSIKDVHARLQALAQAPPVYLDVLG
Chain of KG-1 cell (OP2-FGFR1) (P11362 456-822 limits assumed): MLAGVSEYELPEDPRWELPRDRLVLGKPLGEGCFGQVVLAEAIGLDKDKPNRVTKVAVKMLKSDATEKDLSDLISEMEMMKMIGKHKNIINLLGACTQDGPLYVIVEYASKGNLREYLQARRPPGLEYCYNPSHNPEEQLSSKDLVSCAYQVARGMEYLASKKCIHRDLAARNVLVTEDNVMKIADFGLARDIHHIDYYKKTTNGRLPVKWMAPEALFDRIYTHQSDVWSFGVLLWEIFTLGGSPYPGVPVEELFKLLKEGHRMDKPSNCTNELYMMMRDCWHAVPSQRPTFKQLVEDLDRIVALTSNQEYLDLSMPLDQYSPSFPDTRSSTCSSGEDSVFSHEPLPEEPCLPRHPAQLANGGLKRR

For `C[C@@H]1COc2ncc(F)cc2CN2c3nc4c(cnn4cc3OC[C@H]2C)C(=O)N1` [Comp. Ex. 1, reference compound], the solubility in data set [1] was determined as 7.9 µg/mL (≈ 19.8 µM). Further, the microsomal CLint at 1 µM in data set [2] (setting [4]) came to 22 µL/min/mg; in data set [2] (female, rat, liver microsomes) it was 10 µL/min/mg; in data set [2] (human, pooled liver microsomes) it was 2.6 µL/min/mg. In data set [3], this molecule showed an AUC of 12300 ng·h/mL. The molecule further came in with a Cmax in data set [3] of 4190 ng/mL. The Tmax in data set [3] came out at 30 min. Also, the values for the IC50 against KM12 (TPM3-TRKA) and at KG-1 cell (OP2-FGFR1) were < 0.2 nM and 22.2 nM, respectively.
`C[C@@H]1COc2cn3ncc4c3nc2N1Cc1cc(F)cnc1OCC(C)(C)NC4=O` [Comp. Ex. 2, reference compound] came in with a solubility in data set [1] of 4.9 µg/mL (≈ 11.9 µM). The microsomal CLint at 1 µM stood at 21 µL/min/mg in data set [2] (setting [4]); 5.9 µL/min/mg in data set [2] (female, rat, liver microsomes); 3.9 µL/min/mg in data set [2] (human, pooled liver microsomes). Moreover, in data set [3], the AUC came out at 18700 ng·h/mL. The molecule further registered a Cmax in data set [3] of 2900 ng/mL. Further, the Tmax in data set [3] worked out at 30 min. In addition, the IC50 amounted to 0.2 nM on KM12 (TPM3-TRKA) and 0.65 nM on KG-1 cell (OP2-FGFR1).
As for `O=C1NCCCOc2ccc(F)cc2CN2c3nc4c1cnn4cc3OC[C@H]2C(F)F` [Compound 3, (16S)-16-(Difluoromethyl)-12-fluoro-5,6,7,8,16,17-hexahydro-4H,14H-1,19-(metheno)[1,4]oxazino[3,4-j]pyrazolo[4,3-g][1,5,9,11]benzoxatriazacyclotetradecin-4-one], the IC50 was < 0.2 nM against KM12 (TPM3-TRKA) and 75.3 nM against KG-1 cell (OP2-FGFR1).
As to `O=C1NC2(CC2)COc2ccc(F)cc2CN2c3nc4c1cnn4cc3OC[C@H]2C(F)F` [Compound 4, (4′S)-4′-(Difluoromethyl)-8′-fluoro-3′H,4′H,6′H,12′H,14′H,15′H-spiro[cyclopropane-1,13′-[18,1](metheno)[1,4]oxazino[3,4-i]pyrazolo[4,3-f][1,4,8,10]benzoxatriazacyclotridecin]-15′-one], the 50% inhibitory concentration (IC50) at KG-1 cell (OP2-FGFR1) was 60.9 nM.
As for `C[C@@H]1CCOc2ccc(F)cc2CN2c3nc4c(cnn4cc3OC[C@H]2C(F)F)C(=O)N1` [Compound 5, (6R,16S)-16-(Difluoromethyl)-12-fluoro-6-methyl-5,6,7,8,16,17-hexahydro-4H,14H-1,19-(metheno)[1,4]oxazino[3,4-j]pyrazolo[4,3-g][1,5,9,11]benzoxatriazacyclotetradecin-4-one], the figures for the IC50 against KM12 (TPM3-TRKA) and on KG-1 cell (OP2-FGFR1) were < 0.2 nM and 514 nM, respectively.
Regarding `O=C1NC2(CCOc3ccc(F)cc3CN3c4nc5c1cnn5cc4OC[C@H]3C(F)F)CC2` [Compound 6, (16′S)-16′-(Difluoromethyl)-12′-fluoro-4′H,5′H,7′H,8′H,14′H,16′H,17′H-spiro[cyclopropane-1,6′-[1,19](metheno)[1,4]oxazino[3,4-j]pyrazolo[4,3-g][1,5,9,11]benzoxatriazacyclotetradecin]-4′-one], the IC50 on KM12 (TPM3-TRKA) is < 0.2 nM; at KG-1 cell (OP2-FGFR1), 385 nM.
In the case of `CC1(C)CNC(=O)c2cnn3cc4c(nc23)N(Cc2cc(F)ccc2OC1)[C@H](C(F)F)CO4` [Compound 7, (16S)-16-(Difluoromethyl)-12-fluoro-7,7-dimethyl-5,6,7,8,16,17-hexahydro-4H,14H-1,19-(metheno)[1,4]oxazino[3,4-j]pyrazolo[4,3-g][1,5,9,11]benzoxatriazacyclotetradecin-4-one], the half-maximal inhibitory concentration (IC50) against KM12 (TPM3-TRKA) is < 0.2 nM; at KG-1 cell (OP2-FGFR1), 40.7 nM.
With `CC1(C)CCOc2ccc(F)cc2CN2c3nc4c(cnn4cc3OC[C@H]2C(F)F)C(=O)N1` [Compound 8, (16S)-16-(Difluoromethyl)-12-fluoro-6,6-dimethyl-5,6,7,8,16,17-hexahydro-4H,14H-1,19-(metheno)[1,4]oxazino[3,4-j]pyrazolo[4,3-g][1,5,9,11]benzoxatriazacyclotetradecin-4-one], the IC50 against KM12 (TPM3-TRKA) is < 0.2 nM; against KG-1 cell (OP2-FGFR1) it was 2100 nM.
